Data on twelve compounds can be found in ChEMBL document CHEMBL3779866, “Synthetic approaches, structure activity relationship and biological applications for pharmacologically attractive pyrazole/pyrazoline-thiazolidine-based hybrids” (Eur J Med Chem, 2016).

In brackets after ≈: the same amount, converted by molar mass.

Test [1] relates to Candida albicans. Briefly: Antifungal activity against Candida albicans after 24 to 48 hrs by two-fold microdilution susceptibility assay. The test is classed as functional. For orientation: Broth dilution looks for growth in wells or tubes with falling amounts of substance.
For test [2], the system named is Lysinibacillus sphaericus. Briefly: Antimicrobial activity against Bacillus sphaericus MTCC 11 after 24 hrs by serial two-fold broth dilution method. It counts as functional. The note with it: MTCC 11, 24 h.
For a further test, the system named is Staphylococcus aureus. The test can be described thus: Antimicrobial activity against Staphylococcus aureus MTCC 96 after 24 hrs by serial two-fold broth dilution method. It counts as functional. The note with it: MTCC 96, 24 h.
The test system of test [3] is Chromobacterium violaceum. The test can be described thus: Antimicrobial activity against Chromobacterium violaceum MTCC 2625 after 24 hrs by serial two-fold broth dilution method. It counts as functional. The note with it: MTCC 2625, 24 h.
The subject of another test is Bacillus subtilis. Briefly: Antimicrobial activity against Bacillus subtilis MTCC 441 after 24 hrs by serial two-fold broth dilution method. The note with it: MTCC 441, 24 h. It counts as functional.
The subject of the next test is Pseudomonas aeruginosa. Briefly: Antimicrobial activity against Pseudomonas aeruginosa MTCC 741 after 24 hrs by serial two-fold broth dilution method. It counts as functional. The note with it: MTCC 741, 24 h.
For another test, the system named is Klebsiella aerogenes. The test can be described thus: Antimicrobial activity against Klebsiella aerogenes MTCC 39 after 24 hrs by serial two-fold broth dilution method. It counts as functional. Conditions: MTCC 39, 24 h.
The next test has as its system Leishmania donovani. The test can be described thus: Antiparasitic activity against Leishmania donovani by cell based assay. It counts as functional, organism-based.
The next test has as its system Plasmodium falciparum. Briefly: Antiparasitic activity against Plasmodium falciparum by cell based assay. The test is classed as functional, organism-based.
Another test deals with HepG2. Briefly: Cytotoxicity against human HepG2 cells assessed as growth inhibition after 48 hrs by SRB assay. The test is classed as functional. Conditions: HepG2, 48 h. In general terms: Sulforhodamine B stains cellular protein and so reports cell mass.
Test [4] has as its system Escherichia coli. The test can be described thus: Antimicrobial activity against Escherichia coli after 24 hrs by serial dilution method. It counts as functional.
The test system of another test is HeLa. Briefly: Cytotoxicity against human HeLa cells assessed as growth inhibition after 48 hrs by SRB assay. The test is classed as functional.
For the next test, the system named is Rattus norvegicus. The test can be described thus: Antiinflammatory activity against albino rat assessed as inhibition of carrageenin induced paw edema at 100 mg/kg, po administered for 1 hr followed by carrageenin challenge measured after 4 hrs. It counts as functional. For orientation: In the carrageenan paw model, swelling and tenderness develop within hours.

In test [5] the test system is Trichophyton mentagrophytes. The test can be described thus: Antimicrobial activity against Trichophyton mentagrophytes IFO40996 by serial two-fold broth dilution method. It counts as functional.
In test [6] the test system is Candida albicans. The test can be described thus: Antimicrobial activity against Candida albicans ATCC 10231 by serial two-fold broth dilution method. The test is classed as functional.
In another test the test system is Trichophyton rubrum. The test can be described thus: Antimicrobial activity against Trichophyton rubrum IFO9185 by serial two-fold broth dilution method. It counts as functional.
The test system of another test is Aspergillus fumigatus. The test can be described thus: Antimicrobial activity against Aspergillus fumigatus HIC6094 by serial two-fold broth dilution method. The test is classed as functional.
The test system of test [7] is Escherichia coli. Briefly: Antibacterial activity against Escherichia coli ATCC 25922 after 24 to 48 hrs by two-fold microdilution susceptibility assay. It counts as functional.
In the next test the test system is CCRF-CEM. Briefly: Cytotoxicity against human CCRF-CEM cells assessed as growth inhibition after 48 hrs by SRB assay. It counts as functional.
Another test has as its system EKVX. The test can be described thus: Cytotoxicity against human EKVX cells assessed as growth inhibition after 48 hrs by SRB assay. It counts as functional.
Test [8] can be described thus: Cytotoxicity against human RPMI8226 cells assessed as growth inhibition after 48 hrs by SRB assay. The test is classed as functional. The note with it: RPMI-8226, 48 h.
The subject of the next test is NCI-H522. The test can be described thus: Cytotoxicity against human NCI-H522 cells assessed as growth inhibition after 48 hrs by SRB assay. The test is classed as functional. The note with it: NCI-H522, 48 h.
Test [9] in a line: Cytotoxicity against human HOP92 cells assessed as growth inhibition after 48 hrs by SRB assay. The test is classed as functional. Conditions: HOP-92, 48 h.

Turning to `O=C1CS/C(=N/N=C\c2cn(-c3ccccc3)nc2-c2ccc(Br)s2)N1c1ccc(Cl)cc1`, the MIC (commonly the lowest concentration found to suppress growth) with Candida albicans [1] was 12.5 µg/mL (≈ 22.4 µM).

Regarding `CC1(C)S[C@@H]2[C@H](NC(=O)Cc3ccccc3)C(=O)N2[C@H]1C(=O)O` [PENICILLIN G], the MIC (in [2]; with Staphylococcus aureus; in test [3]; against Bacillus subtilis; against Pseudomonas aeruginosa; against Klebsiella aerogenes) was 1.56 µg/mL (≈ 4.67 µM) in each case.

For the compound `CC1=NN(C2=NC(=O)CS2)C(c2ccccc2)C1` (centres undefined), the values for the IC50 with Leishmania donovani and in the test on Plasmodium falciparum were more than 30 µg/mL and more than 5 µg/mL, respectively.

`C(=N\Nc1nc(-c2ccc3c(c2)CCCC3)cs1)/c1cn(-c2ccccc2)nc1-c1cc2ccccc2o1`: the GI50 – broadly, the concentration giving 50% growth inhibition – with HepG2 worked out at 5 µg/mL (≈ 9.7 µM).

`CC(=O)OC[C@@H]1O[C@@H](N2C(=O)/C(=C/c3cn(-c4ccccc4)nc3-c3ccc(Br)cc3)SC2=S)[C@@H](OC(C)=O)[C@H](OC(C)=O)[C@@H]1OC(C)=O` yielded an MIC against Escherichia coli [4] of 143 µg/mL (≈ 185 µM).

Regarding `Cc1ccc(N2C(=O)CSC2c2cn(-c3ccccc3)nc2-c2cc3ccccc3o2)cc1` (centres undefined), in the test on HeLa, the 50% growth inhibitory concentration (GI50) turned out to be 1.2 µg/mL (≈ 2.66 µM).

For the compound `CN(C)[C@@H]1C(O)=C(C(N)=O)C(=O)[C@@]2(O)C(O)=C3C(=O)c4c(O)cccc4[C@@](C)(O)[C@H]3C[C@@H]12` [TETRACYCLINE], the MIC against Escherichia coli [4] stood at 39 µg/mL (≈ 87.8 µM).

Take `CC(C(=O)O)c1cccc(C(=O)c2ccccc2)c1` (centres undefined) [KETOPROFEN]: the inhibition in vivo (commonly how much of the control response was suppressed) at 100 mg/kg in the test with Rattus norvegicus was 63%.

On to `Cc1nn(-c2ccccc2)c(C)c1-c1cc(-c2ccc(Cl)cc2)nc(N2C(=O)CSC2c2ccc(N(C)C)cc2)n1` (centres undefined), for which the minimal inhibitory concentration (MIC) (in test [5]; against Candida albicans [6]; in the test with Trichophyton rubrum; against Aspergillus fumigatus) was 14 µg/mL (≈ 24.1 µM) in each case.

For `Cc1nn(-c2ccccc2)c(C)c1-c1cc(-c2ccc(Cl)cc2)nc(N2C(=O)CSC2c2ccco2)n1` (centres undefined), the MIC (in test [5]; in the test on Candida albicans [6]; against Trichophyton rubrum; against Aspergillus fumigatus) was 14 µg/mL (≈ 26.5 µM) in each case.

In the test with Escherichia coli [7], `Cc1ccc(N2C(=O)CS/C2=N/N=C\c2cn(-c3ccccc3)nc2-c2ccc(Br)s2)cc1` gave an MIC of 25 µg/mL (≈ 46.6 µM).

`O=C1NC(=S)S/C1=C\c1cn(-c2ccccc2)nc1-c1ccccc1`: the GI50 in the test on CCRF-CEM stood at 2.5 µM; in the test with EKVX it was 3.03 µM; in test [8], 2.52 µM; in the test with NCI-H522, 2.96 µM; in [9], 0.62 µM. Moreover, in [9] (read-out: LC50 (the source's name)), the CC50 is more than 100 µM.
